Patent US8188059B2, “Compounds and methods for modulating expression of GCGR” (Isis Pharmaceuticals, Inc., priority 2006, dated 2012)
Strand notation (5' to 3'): a small letter for the sugar, then the base; units joined by * are phosphorothioate-linked, units joined directly phosphodiester-linked; [ ] holds rarer units or linkages, { } end groups; capitals alone tell only the bases. e = 2'-O-(2-methoxyethyl) (MOE); [5mC] = 5-methylcytosine; d = 2'-deoxy (DNA)

System: PCSK9 mRNA
Type: cell-based, human
Conditions: Hep3B cells, 100 nM, relative to untreated control cells; for % Inhib (PCSK9 mRNA): 0 = no reduction observed
Description: When cells reached appropriate confluency, they were treated with oligonucleotide using LIPOFECTIN® as described. […] Cells were treated and data were obtained in duplicate or triplicate. […] Cells were harvested 16-24 hours after oligonucleotide treatment.
Short antisense compounds targeted to a PCSK9 nucleic acid were tested for their effects on PCSK9 mRNA in vitro. The Isis No, gapmer motif and SEQ ID NO of each short antisense compound are shown again in Table 75. Cultured Hep3B cells were treated with 100 nM of short antisense compound. 5-10-5 MOE gapmers targeted to a PCSK9 nucleic acid were used as positive controls. After the treatment period, RNA was isolated from the cells and PCSK9 mRNA levels were measured by quantitative real-time PCR, as described herein. PCSK9 mRNA levels were adjusted according to total RNA content as measured by RIBOGREEN®. Results are presented in Table 75 as percent inhibition of PCSK9 (% Inhib), relative to untreated control cells.

| Substance | % Inhib (PCSK9 mRNA) | % Inhibition Range (PCSK9 mRNA) |
| --- | --- | --- |
| 400346 (eG*eA*dG*d[5mC]*dA*dG*d[5mC]*dT*d[5mC]*dA*dG*d[5mC]*eA*eG; antisense) [compound 400346] | 5% |  |
| 400341 (eG*e[5mC]*dT*dG*dG*dT*d[5mC]*d[5mC]*dT*d[5mC]*dA*dG*eG*eG; antisense) [compound 400341] | 0% |  |
| 400299 (antisense eA*e[5mC]*dA*dT*dG*dG*dG*dG*d[5mC]*dA*dA*d[5mC]*eT*eT) [compound 400299] | 0% |  |
| 400336 (eT*e[5mC]*d[5mC]*dT*d[5mC]*dA*dG*dG*dG*dA*dA*d[5mC]*e[5mC]*eA; antisense) [compound 400336] | 4% |  |
| 400319 (e[5mC]*eG*dA*dA*dT*dA*dA*dA*d[5mC]*dT*d[5mC]*d[5mC]*eA*eG; antisense) [compound 400319] | 0% |  |
| 400345 (eT*eG*dG*dG*dT*dG*d[5mC]*dT*dG*dG*dG*dG*eG*eG; antisense) [compound 400345] | 0% |  |
| 400306 (antisense e[5mC]*eT*dG*dT*d[5mC]*dA*d[5mC]*dA*d[5mC]*dT*dT*dG*e[5mC]*eT) [compound 400306] | 40% | 40-50% |
| 400361 (antisense eG*eG*d[5mC]*dA*dG*d[5mC]*dA*dG*dA*dT*dG*dG*e[5mC]*eA) [compound 400361] | 2% |  |
| 400354 (antisense eG*eA*d[5mC]*dA*d[5mC]*d[5mC]*d[5mC]*dT*d[5mC]*dA*d[5mC]*d[5mC]*e[5mC]*e[5mC]) [compound 400354] | 19% | 10-20% |
| 400314 (eG*eT*dG*d[5mC]*d[5mC]*d[5mC]*dT*dT*d[5mC]*d[5mC]*d[5mC]*dT*eT*eG; antisense) [compound 400314] | 26% | 20-30% |
| 400328 (eA*e[5mC]*dG*dT*dG*dG*dG*d[5mC]*dA*dG*d[5mC]*dA*eG*e[5mC]; antisense) [compound 400328] | 13% | 10-20% |
| 400344 (eG*eG*dG*dT*dG*d[5mC]*dT*dG*dG*dG*dG*dG*eG*e[5mC]; antisense) [compound 400344] | 0% |  |
| 400326 (eT*e[5mC]*d[5mC]*d[5mC]*d[5mC]*dA*dA*dA*dG*dT*d[5mC]*d[5mC]*e[5mC]*e[5mC]; antisense) [compound 400326] | 0% |  |
| 400359 (antisense e[5mC]*eA*dT*dG*dG*d[5mC]*dA*dG*d[5mC]*dA*dG*dG*eA*eA) [compound 400359] | 0% |  |
| 400315 (eA*eT*dG*dA*dG*dG*dG*dT*dG*d[5mC]*d[5mC]*dG*e[5mC]*eT; antisense) [compound 400315] | 0% |  |
| 400337 (eG*eT*d[5mC]*d[5mC]*dT*d[5mC]*dA*dG*dG*dG*dA*dA*e[5mC]*e[5mC]; antisense) [compound 400337] | 0% |  |
| 400342 (eG*eT*dG*d[5mC]*dT*dG*dG*dG*dG*dG*dG*d[5mC]*eA*eG; antisense) [compound 400342] | 0% |  |
| 400370 (antisense eG*e[5mC]*d[5mC]*dG*dG*d[5mC]*dT*d[5mC]*d[5mC]*dG*dG*d[5mC]*eA*eG) [compound 400370] | 13% | 10-20% |
| 400321 (eT*e[5mC]*d[5mC]*dG*dA*dA*dT*dA*dA*dA*d[5mC]*dT*e[5mC]*e[5mC]; antisense) [compound 400321] | 0% |  |
| 400329 (e[5mC]*eA*d[5mC]*dG*dT*dG*dG*dG*d[5mC]*dA*dG*d[5mC]*eA*eG; antisense) [compound 400329] | 14% | 10-20% |
| 400333 (eT*e[5mC]*dA*dG*dG*dG*dA*dA*d[5mC]*d[5mC]*dA*dG*eG*e[5mC]; antisense) [compound 400333] | 0% |  |
| 400366 (antisense eG*e[5mC]*dT*d[5mC]*d[5mC]*dG*dG*d[5mC]*dA*dG*d[5mC]*dA*eG*eA) [compound 400366] | 15% | 10-20% |
| 400360 (antisense eG*e[5mC]*dA*dT*dG*dG*d[5mC]*dA*dG*d[5mC]*dA*dG*eG*eA) [compound 400360] | 38% | 30-40% |
| 400311 (eA*eT*d[5mC]*d[5mC]*d[5mC]*dG*dG*d[5mC]*d[5mC]*dG*d[5mC]*dT*eG*eA; antisense) [compound 400311] | 18% | 10-20% |
| 400320 (e[5mC]*e[5mC]*dG*dA*dA*dT*dA*dA*dA*d[5mC]*dT*d[5mC]*e[5mC]*eA; antisense) [compound 400320] | 0% |  |

| Substance | % Inhib (PCSK9 mRNA) | % Inhibition Range (PCSK9 mRNA) |
| --- | --- | --- |
| 400357 (antisense eT*eG*dG*d[5mC]*dA*dG*d[5mC]*dA*dG*dG*dA*dA*eG*e[5mC]) [compound 400357] | 0% |  |
| 400347 (antisense eG*eG*dA*dG*d[5mC]*dA*dG*d[5mC]*dT*d[5mC]*dA*dG*e[5mC]*eA) [compound 400347] | 0% |  |
| 400323 (eG*e[5mC]*d[5mC]*dA*dG*dG*dG*dG*d[5mC]*dA*dG*d[5mC]*eA*eG; antisense) [compound 400323] | 0% |  |
| 400302 (antisense eG*eA*dT*dA*d[5mC]*dA*d[5mC]*d[5mC]*dT*d[5mC]*d[5mC]*dA*e[5mC]*e[5mC]) [compound 400302] | 0% |  |
| 400325 (e[5mC]*e[5mC]*d[5mC]*d[5mC]*dA*dA*dA*dG*dT*d[5mC]*d[5mC]*d[5mC]*e[5mC]*eA; antisense) [compound 400325] | 4% |  |
| 400303 (antisense eA*eG*dA*dT*dA*d[5mC]*dA*d[5mC]*d[5mC]*dT*d[5mC]*d[5mC]*eA*e[5mC]) [compound 400303] | 0% |  |
| 400316 (eT*eA*dT*dG*dA*dG*dG*dG*dT*dG*d[5mC]*d[5mC]*eG*e[5mC]; antisense) [compound 400316] | 8% |  |
| 400369 (antisense e[5mC]*e[5mC]*dG*dG*d[5mC]*dT*d[5mC]*d[5mC]*dG*dG*d[5mC]*dA*eG*e[5mC]) [compound 400369] | 0% |  |
| 400351 (antisense eA*e[5mC]*d[5mC]*d[5mC]*dT*d[5mC]*dA*d[5mC]*d[5mC]*d[5mC]*d[5mC]*d[5mC]*eA*eA) [compound 400351] | 14% | 10-20% |
| 400318 (e[5mC]*e[5mC]*dT*dA*dT*dG*dA*dG*dG*dG*dT*dG*e[5mC]*e[5mC]; antisense) [compound 400318] | 26% | 20-30% |
| 400348 (antisense eT*eG*dG*dA*dG*d[5mC]*dA*dG*d[5mC]*dT*d[5mC]*dA*eG*e[5mC]) [compound 400348] | 0% |  |
| 400298 (antisense e[5mC]*eA*dT*dG*dG*dG*dG*d[5mC]*dA*dA*d[5mC]*dT*eT*e[5mC]) [compound 400298] | 0% |  |
| 400313 (eG*e[5mC]*dA*dT*d[5mC]*d[5mC]*d[5mC]*dG*dG*d[5mC]*d[5mC]*dG*e[5mC]*eT; antisense) [compound 400313] | 10% | 10-20% |
| 400364 (antisense eT*e[5mC]*d[5mC]*dG*dG*d[5mC]*dA*dG*d[5mC]*dA*dG*dA*eT*eG) [compound 400364] | 0% |  |
| 400368 (antisense e[5mC]*eG*dG*d[5mC]*dT*d[5mC]*d[5mC]*dG*dG*d[5mC]*dA*dG*e[5mC]*eA) [compound 400368] | 11% | 10-20% |
| 400343 (eG*eG*dT*dG*d[5mC]*dT*dG*dG*dG*dG*dG*dG*e[5mC]*eA; antisense) [compound 400343] | 0% |  |
| 400312 (e[5mC]*eA*dT*d[5mC]*d[5mC]*d[5mC]*dG*dG*d[5mC]*d[5mC]*dG*d[5mC]*eT*eG; antisense) [compound 400312] | 28% | 20-30% |
| 400350 (antisense e[5mC]*e[5mC]*d[5mC]*dT*d[5mC]*dA*d[5mC]*d[5mC]*d[5mC]*d[5mC]*d[5mC]*dA*eA*eA) [compound 400350] | 15% | 10-20% |
| 400324 (eG*eA*dG*dT*dA*dG*dA*dG*dG*d[5mC]*dA*dG*eG*e[5mC]; antisense) [compound 400324] | 7% |  |
| 400356 (antisense eT*eA*dG*dA*d[5mC]*dA*d[5mC]*d[5mC]*d[5mC]*dT*d[5mC]*dA*e[5mC]*e[5mC]) [compound 400356] | 0% |  |
| 400301 (antisense e[5mC]*eG*d[5mC]*dT*d[5mC]*d[5mC]*dA*dG*dG*dT*dT*d[5mC]*e[5mC]*eA) [compound 400301] | 27% | 20-30% |
| 400365 (antisense e[5mC]*eT*d[5mC]*d[5mC]*dG*dG*d[5mC]*dA*dG*d[5mC]*dA*dG*eA*eT) [compound 400365] | 25% | 20-30% |
| 400367 (antisense eG*eG*d[5mC]*dT*d[5mC]*d[5mC]*dG*dG*d[5mC]*dA*dG*d[5mC]*eA*eG) [compound 400367] | 12% | 10-20% |
| 400317 (e[5mC]*eT*dA*dT*dG*dA*dG*dG*dG*dT*dG*d[5mC]*e[5mC]*eG; antisense) [compound 400317] | 7% |  |
